Data as given in patent US20080051381A1, “Suppression of estrus in mares by a single injection method” (priority 2006, published 2008).
Marks after values point to notes of the source that are not given here.

Columns and labels:
[1] = test system: estrus and ovulation in mares; details: prior knowledge; cited from earlier work
[2] = test system: injection site swelling in mares; test: Injection site assessment (swelling score 0-3) in mares; format: in vivo, mares (equine); details: compared to controls (FIG. 1)
Procedure: (§1) Injection site assessments are made on days 0, 1, 3, 6, and 9 post-treatment. Scores are based on a subjective scale of 0-3. Zero means no swelling; one means slight diameter swelling (i.e. about 12.5 mm); 2 means moderate diameter swelling (i.e. about 12.5 to 25 mm); and 3 means significant swelling (i.e. more than 25 mm). Plasma concentrations of progesterone are measured with commercially available reagents (Diagnostic Systems Laboratories, Webster, Tex.). Intra- and interassay CV and assay sensitivities are 5%, 8%, and 0.1 ng/mL. Data are analyzed by the Proc Mixed procedure of SAS (SAS Institute Inc., Cary, N.C.). Single point variables are analyzed via a one way ANOVA. Data from injection site scores are analyzed for effects of treatment, time, and treatment by time interactions with repeated measures. When a significant F is detected (P<0.05), the least significant difference (LSD) test is used to determine differences between groups within times.

[3] = test system: estrus and ovulation in light-horse mares; test: Suppression of estrus and ovulation in mares after a single sustained release injection; format: in vivo, mares (equine)
Procedure: Thirty one randomly selected light-horse mares are maintained on native pasture and ad libitum hay. Verification of normal reproductive cyclicity is determined by follicular ultrasound, teasing with a vigorous stallion, and radioimmunoassay of plasma progesterone concentrations. Mares displaying estrus (i.e. the estrus mare group) with plasma progesterone levels below 1 ng/mL are followed by ultrasound until a follicle 30 mm or greater is determined. When a follicle reaches 30 mm, 2 mL of 2000 IU human chorionic gonadotropin is administered to induce ovulation. Mares in the estrus group are subsequently followed by ultrasound until ovulation and corpus luteal formation are verified. Six days after ovulation is determined, mares in this group are given a 2 mL injection of dinoprost tromethamine and randomly assigned to a treatment regime set forth in Table 1.
Mares not displaying estrus (i.e. the non-estrus mare group) with progesterone concentrations above 1 ng/mL and the presence of a corpus luteum verified by ultrasound are given 2 mL dinoprost tromethamine. Once estrus is detected by teasing with a stallion, these mares are treated as the mares assigned to the estrus mare group. […]
The mares of each of the groups in Table 1 are followed via ultrasound every other day after treatment until a follicle 25 mm or greater is detected. […]
as §1, with “Scores are based on a subjective scale of 0-3. Zero means no swelling; one means slight diameter swelling (i.e. about 12.5 mm); 2 means moderate diameter swelling (i.e. about 12.5 to 25 mm); and 3 means significant swelling (i.e. more than 25 mm).” left out, “Intra- and interassay CV and assay sensitivities are 5%, 8%, and 0.1 ng/mL.” left out

Structure (SMILES)	Effect on estrus and ovulation (background, in words) [1]	Injection site swelling / biocompatibility (in words) [2]	Effectiveness at delaying estrus and ovulation (in words) ([3]; compared to controls)	Days to ovulation ([3]; relative to administration of dinoprost tromethamine and treatment, mean ± SE)	Days to estrus ([3]; single injection on d0 together with 2 mL dinoprost tromethamine, mean ± SE)
C=CC[C@]1(O)CC[C@H]2[C@@H]3CCC4=CC(=O)CCC4=C3C=C[C@@]21C [Altrenogest, 17-α-Allyl-17-β-hydroxyoestra-4,9,11-trien-3-one]	suppress estrus and ovulation	–	–	–	–
CC(=O)O[C@]1(C(C)=O)CC[C@H]2[C@@H]3C[C@H](C)C4=CC(=O)CC[C@]4(C)[C@H]3CC[C@@]21C [Medroxyprogesterone, Medroxyprogesterone acetate]	not to effect estrus, ovulation or pregnancy maintenance	most biocompatible formulation	not effective at delaying estrus or ovulation	11.3 ± 2.14^a days	6.2 ± 1.38^a days
CC(=O)[C@H]1CC[C@H]2[C@@H]3CCC4=CC(=O)CC[C@]4(C)[C@H]3CC[C@]12C [progesterone]	suppress estrus and ovulation	–	–	–	–
